In patent publication US20160166676A1 (priority 2013, published 2016):

What was measured:
CTLL-2 cells = type: cell-based
[1] = biological target: STING deletion mutant DN5 (162-N) (Homo sapiens, UniProt Q86WV6); type: binding
STING deletion mutant DN5 (162-N), sequence (Q86WV6 162-379, stated change not applied): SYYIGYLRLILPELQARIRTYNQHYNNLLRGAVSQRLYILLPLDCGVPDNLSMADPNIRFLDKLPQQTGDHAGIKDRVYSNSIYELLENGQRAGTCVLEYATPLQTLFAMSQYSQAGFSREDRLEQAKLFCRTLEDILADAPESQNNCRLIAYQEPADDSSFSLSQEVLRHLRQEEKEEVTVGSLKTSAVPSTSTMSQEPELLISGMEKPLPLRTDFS

## GLFGAIAGFIENGWEGCGGEKEKEK [IN F#2 dimer]
CTLL-2 cells
  proliferation of CTLL-2 cells: inhibits the proliferation of CTLL-2 cells
[1]
  pulldown of STING deletion mutant DN5 (162-N) by biotinylated peptide: readily pulled down
